# Calls of active or inactive are those of the source. The calls are words filed in the database; no cut-off is given here.
# What was measured:
# Bel-7402 = test: Antiproliferative activity against human Bel7402 cells after 72 hrs by CCK-8 assay; assay type: functional, cell-based; settings: Bel-7402, 72 h
# Bel7402/5-FU [1] = test: Antiproliferative activity against human Bel7402/5-FU cells after 72 hrs by CCK-8 assay; assay type: functional, cell-based
# L02 = test: Antiproliferative activity against human LO2 cells after 72 hrs by CCK-8 assay; assay type: cell-based; settings: L02, 72 h
# [2] = Resistant factor, ratio of IC50 for human Bel7402/5-FU cells to IC50 for human Bel7402 cells; assay type: functional
# Bel7402/5-FU [3] = test: Cell cycle arrest in human Bel7402/5-FU cells assessed as accumulation at G1 phase at 10 uM after 48 hrs by propidium iodide staining based flow cytometry (reference value: 52.21%); assay type: functional
# Bel7402/5-FU [4] = test: Cell cycle arrest in human Bel7402/5-FU cells assessed as accumulation at S phase at 10 uM after 48 hrs by propidium iodide staining based flow cytometry (reference value: 12.62%); assay type: functional
# Bel7402/5-FU [5] = test: Cell cycle arrest in human Bel7402/5-FU cells assessed as accumulation at G2 phase at 10 uM after 48 hrs by propidium iodide staining based flow cytometry (reference value: 35.16%); assay type: functional
# Bel7402/5-FU [6] = test: Induction of apoptosis in human Bel7402/5-FU cells assessed as reduction in cell number at 10 uM after 24 hrs by Hoechst 33342 staining based fluorescent microscopic method; assay type: functional
# Bel7402/5-FU [7] = test: Induction of apoptosis in human Bel7402/5-FU cells assessed as morphological changes at 10 uM after 24 hrs by Hoechst 33342 staining based fluorescent microscopic method; assay type: functional, cell-based
# Bel7402/5-FU [8] = test: Induction of apoptosis in human Bel7402/5-FU cells assessed as condensed nuclei at 10 uM after 24 hrs by Hoechst 33342 staining based fluorescent microscopic method; assay type: functional, cell-based
# Bel7402/5-FU [9] = test: Induction of apoptosis in human Bel7402/5-FU cells at 10 uM after 24 hrs by Hoechst 33342 staining based fluorescent microscopic method; assay type: functional, cell-based
# Bel7402/5-FU [10] = test: Induction of apoptosis in human Bel7402/5-FU cells assessed as live cells at 10 uM after 48 hrs by Annexin V-APC/7-AAD staining based flow cytometry (reference value: 91.08%); assay type: functional
# Bel7402/5-FU [11] = test: Induction of apoptosis in human Bel7402/5-FU cells assessed as early apoptotic cells at 10 uM after 48 hrs by Annexin V-APC/7-AAD staining based flow cytometry (reference value: 5.24%); assay type: functional
# Bel7402/5-FU [12] = test: Induction of apoptosis in human Bel7402/5-FU cells assessed as late apoptotic cells at 10 uM after 48 hrs by Annexin V-APC/7-AAD staining based flow cytometry (reference value: 3%); assay type: functional
# Bel7402/5-FU [13] = test: Induction of apoptosis in human Bel7402/5-FU cells assessed as necrotic cells at 10 uM after 48 hrs by Annexin V-APC/7-AAD staining based flow cytometry (reference value: 0.58%); assay type: functional
# Bel7402/5-FU [14] = test: Induction of microtubule disruption in human Bel7402/5-FU cells at 10 uM after 24 to 48 hrs by DAPI staining based immunofluorescence microscopic method; assay type: functional, cell-based
# Bel7402/5-FU [15] = test: Reduction in microtubule density in human Bel7402/5-FU cells at 10 uM after 24 to 48 hrs by DAPI staining based immunofluorescence microscopic method; assay type: functional, cell-based
# Bel7402/5-FU [16] = test: Antimigratory activity in human Bel7402/5-FU cells at 10 uM after 24 hrs by wound healing assay; assay type: functional, cell-based
# Bel7402/5-FU [17] = test: Effect on CDK1 expression in human Bel7402/5-FU cells assessed as ratio of CDK1 to beta-actin level at 10 uM after 48 hrs by Western blot analysis (reference value: 0.33); assay type: functional
# Bel7402/5-FU [18] = test: Effect on CDK2 expression in human Bel7402/5-FU cells assessed as ratio of CDK2 to beta-actin level at 10 uM after 48 hrs by Western blot analysis (reference value: 0.43); assay type: functional
# Bel7402/5-FU [19] = test: Effect on cyclinA expression in human Bel7402/5-FU cells assessed as ratio of cyclinA to beta-actin level at 10 uM after 48 hrs by Western blot analysis (reference value: 0.39); assay type: functional
# Bel7402/5-FU [20] = test: Effect on cyclinB1 expression in human Bel7402/5-FU cells assessed as ratio of cyclinB1 to beta-actin level at 10 uM after 48 hrs by Western blot analysis (reference value: 0.53); assay type: functional
# Bel7402/5-FU [21] = test: Induction of apoptosis in human Bel7402/5-FU cells assessed as ratio of cleaved caspase-3 to beta-actin level at 10 uM after 48 hrs by Western blot analysis (reference value: 0.19); assay type: functional
# Bel7402/5-FU [22] = test: Induction of apoptosis in human Bel7402/5-FU cells assessed as ratio of cleaved caspase-8 to beta-actin level at 10 uM after 48 hrs by Western blot analysis (reference value: 0.17); assay type: functional
# Bel7402/5-FU [23] = test: Induction of apoptosis in human Bel7402/5-FU cells assessed as ratio of cleaved caspase-9 to beta-actin level at 10 uM after 48 hrs by Western blot analysis (reference value: 0.17); assay type: functional
# Bel7402/5-FU [24] = test: Induction of apoptosis in human Bel7402/5-FU cells assessed as ratio of cleaved PARP to beta-actin level at 10 uM after 48 hrs by Western blot analysis (reference value: 0.2); assay type: functional
# Bel7402/5-FU [25] = test: Effect on VEGFR2 expression in human Bel7402/5-FU cells assessed as ratio of VEGFR2 to beta-actin level at 10 uM after 48 hrs by Western blot analysis (reference value: 0.25); assay type: functional
# Bel7402/5-FU [26] = test: Effect on MMP2 expression in human Bel7402/5-FU cells assessed as ratio of MMP2 to beta-actin level at 10 uM after 48 hrs by Western blot analysis (reference value: 0.3); assay type: functional
# Bel7402/5-FU [27] = test: Effect on E-cadherin expression in human Bel7402/5-FU cells assessed as ratio of E-cadherin to beta-actin level at 10 uM after 48 hrs by Western blot analysis (reference value: 0.2); assay type: functional
# Bel7402/5-FU [28] = test: Effect on COX1 expression in human Bel7402/5-FU cells assessed as ratio of COX1 to beta-actin level at 10 uM after 48 hrs by Western blot analysis (reference value: 0.48); assay type: functional
# Bel7402/5-FU [29] = test: Effect on COX2 expression in human Bel7402/5-FU cells assessed as ratio of COX2 to beta-actin level at 10 uM after 48 hrs by Western blot analysis (reference value: 0.36); assay type: functional
# Bel7402/5-FU [30] = test: Effect on iNOS expression in human Bel7402/5-FU cells assessed as ratio of iNOS to beta-actin level at 10 uM after 48 hrs by Western blot analysis (reference value: 0.13); assay type: functional
# Bel7402/5-FU [31] = test: Effect on P-gp expression in human Bel7402/5-FU cells assessed as ratio of P-gp to beta-actin level at 10 uM after 48 hrs by Western blot analysis (reference value: 0.59); assay type: functional
# Bel7402/5-FU [32] = test: Effect on MRP1 expression in human Bel7402/5-FU cells assessed as ratio of MRP1 to beta-actin level at 10 uM after 48 hrs by Western blot analysis (reference value: 0.58); assay type: functional
# [33] = target: Mitogen-activated protein kinase; ERK1/ERK2 (Homo sapiens) (UniProt P27361+P28482); test: Effect on ERK1/2 phosphorylation in human Bel7402/5-FU cells assessed as ratio of phosphorylated ERK1/2 to beta-actin level at 10 uM after 48 hrs by Western blot analysis (reference value: 0.59); assay type: cell-based
# [34] = target: Signal transducer and activator of transcription 3 (Homo sapiens) (UniProt P40763); test: Effect on STAT3 phosphorylation in human Bel7402/5-FU cells assessed as ratio of phosphorylated STAT3 to beta-actin level at 10 uM after 48 hrs by Western blot analysis (reference value: 0.3); assay type: cell-based
# [35] = target: RAC-alpha serine/threonine-protein kinase (Homo sapiens) (UniProt P31749); test: Effect on AKT phosphorylation in human Bel7402/5-FU cells assessed as ratio of phosphorylated AKT to beta-actin level at 10 uM after 48 hrs by Western blot analysis (reference value: 0.39); assay type: cell-based
# Chain of RAC-alpha serine/threonine-protein kinase (Homo sapiens) (P31749 whole entry): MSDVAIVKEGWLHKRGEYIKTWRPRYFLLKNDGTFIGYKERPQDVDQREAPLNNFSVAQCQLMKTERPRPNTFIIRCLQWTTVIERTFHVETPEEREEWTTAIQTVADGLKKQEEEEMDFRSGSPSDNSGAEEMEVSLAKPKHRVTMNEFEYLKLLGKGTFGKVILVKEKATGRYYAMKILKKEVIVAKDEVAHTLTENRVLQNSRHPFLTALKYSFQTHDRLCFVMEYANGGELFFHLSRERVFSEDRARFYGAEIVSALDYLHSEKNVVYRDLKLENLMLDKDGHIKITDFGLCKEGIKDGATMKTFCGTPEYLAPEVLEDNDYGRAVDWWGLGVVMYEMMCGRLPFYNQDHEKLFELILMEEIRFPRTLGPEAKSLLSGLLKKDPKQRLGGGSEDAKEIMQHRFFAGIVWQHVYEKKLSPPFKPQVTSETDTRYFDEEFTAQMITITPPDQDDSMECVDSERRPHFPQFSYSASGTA
# Chain of Mitogen-activated protein kinase; ERK1/ERK2 (Homo sapiens) (P27361 whole entry, looked up): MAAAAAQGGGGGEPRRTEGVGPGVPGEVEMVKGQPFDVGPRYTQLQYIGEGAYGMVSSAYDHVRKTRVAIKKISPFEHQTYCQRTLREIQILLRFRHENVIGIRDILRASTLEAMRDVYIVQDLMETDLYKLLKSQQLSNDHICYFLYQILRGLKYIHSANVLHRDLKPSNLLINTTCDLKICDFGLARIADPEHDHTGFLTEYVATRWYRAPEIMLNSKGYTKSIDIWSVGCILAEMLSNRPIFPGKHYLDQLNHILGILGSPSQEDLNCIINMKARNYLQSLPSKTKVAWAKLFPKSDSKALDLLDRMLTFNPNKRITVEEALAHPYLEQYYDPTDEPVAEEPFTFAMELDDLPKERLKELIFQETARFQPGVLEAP
# Chain of Mitogen-activated protein kinase; ERK1/ERK2 (Homo sapiens) (P28482 whole entry, looked up): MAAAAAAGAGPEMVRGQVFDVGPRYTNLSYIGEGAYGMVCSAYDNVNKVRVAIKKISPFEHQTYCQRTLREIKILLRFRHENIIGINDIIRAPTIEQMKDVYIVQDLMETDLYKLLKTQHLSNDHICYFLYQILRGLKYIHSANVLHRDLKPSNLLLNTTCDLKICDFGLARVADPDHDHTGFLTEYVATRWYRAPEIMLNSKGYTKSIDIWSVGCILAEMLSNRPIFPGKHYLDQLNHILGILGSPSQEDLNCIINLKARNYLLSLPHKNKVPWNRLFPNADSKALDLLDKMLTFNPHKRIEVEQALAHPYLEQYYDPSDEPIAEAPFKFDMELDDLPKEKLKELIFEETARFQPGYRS
# Chain of Signal transducer and activator of transcription 3 (Homo sapiens) (P40763 whole entry): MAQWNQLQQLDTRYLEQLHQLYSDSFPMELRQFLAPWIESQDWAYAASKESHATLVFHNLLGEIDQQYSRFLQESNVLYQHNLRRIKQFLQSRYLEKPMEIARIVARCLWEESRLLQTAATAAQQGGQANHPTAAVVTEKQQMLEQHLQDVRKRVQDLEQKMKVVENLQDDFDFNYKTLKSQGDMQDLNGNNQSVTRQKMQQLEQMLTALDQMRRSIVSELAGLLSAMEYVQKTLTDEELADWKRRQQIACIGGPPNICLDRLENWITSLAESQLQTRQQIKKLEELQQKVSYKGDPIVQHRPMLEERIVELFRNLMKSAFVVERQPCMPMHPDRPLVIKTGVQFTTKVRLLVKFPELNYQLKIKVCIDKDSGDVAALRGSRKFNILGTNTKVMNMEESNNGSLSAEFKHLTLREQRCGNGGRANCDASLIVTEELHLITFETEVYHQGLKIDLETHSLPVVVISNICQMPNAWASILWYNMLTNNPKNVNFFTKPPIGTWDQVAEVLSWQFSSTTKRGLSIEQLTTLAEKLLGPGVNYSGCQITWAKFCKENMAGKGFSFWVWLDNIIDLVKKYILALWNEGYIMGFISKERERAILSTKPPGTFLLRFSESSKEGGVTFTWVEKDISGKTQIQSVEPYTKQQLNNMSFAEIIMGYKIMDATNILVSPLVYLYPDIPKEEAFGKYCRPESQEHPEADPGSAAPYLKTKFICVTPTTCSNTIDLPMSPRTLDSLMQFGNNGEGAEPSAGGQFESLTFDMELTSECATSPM
smiles,measurement,setting,value
COc1cc([C@@H]2c3cc4c(cc3[C@H](OC(=O)C(C)c3ccc(CC(C)C)cc3)[C@H]3COC(=O)[C@H]23)OCO4)cc(OC)c1OC (some centres not stated),IC50,Bel-7402,18.9 µM
same,IC50,Bel7402/5-FU [1],10.3 µM
same,IC50,L02,7.38 µM
same,Ratio IC50,[2],0.54
same,Activity,Bel7402/5-FU [3],8.88%
same,Activity,Bel7402/5-FU [4],27.34%
same,Activity,Bel7402/5-FU [5],63.78%
same,Activity,Bel7402/5-FU [6],Active
same,Activity,Bel7402/5-FU [7],Active
same,Activity,Bel7402/5-FU [8],Active
same,Activity,Bel7402/5-FU [9],Active
same,Activity,Bel7402/5-FU [10],62.05%
same,Activity,Bel7402/5-FU [11],7.12%
same,Activity,Bel7402/5-FU [12],21.24%
same,Activity,Bel7402/5-FU [13],9.59%
same,Activity,Bel7402/5-FU [14],Active
same,Activity,Bel7402/5-FU [15],Active
same,Activity,Bel7402/5-FU [16],Active
same,Ratio,Bel7402/5-FU [17],0.29
same,Ratio,Bel7402/5-FU [18],0.38
same,Ratio,Bel7402/5-FU [19],0.36
same,Ratio,Bel7402/5-FU [20],0.52
same,Ratio,Bel7402/5-FU [21],0.33
same,Ratio,Bel7402/5-FU [22],0.25
same,Ratio,Bel7402/5-FU [23],0.25
same,Ratio,Bel7402/5-FU [24],0.35
same,Ratio,Bel7402/5-FU [25],0.18
same,Ratio,Bel7402/5-FU [26],0.21
same,Ratio,Bel7402/5-FU [27],0.29
same,Ratio,Bel7402/5-FU [28],0.46
same,Ratio,Bel7402/5-FU [29],0.43
same,Ratio,Bel7402/5-FU [30],0.23
same,Ratio,Bel7402/5-FU [31],0.61
same,Ratio,Bel7402/5-FU [32],0.7
same,Ratio,[33],0.55
same,Ratio,[34],0.4
same,Ratio,[35],0.42

# Source: ChEMBL document CHEMBL4038272, “Synthesis and biological evaluation of novel podophyllotoxin-NSAIDs conjugates as multifunctional anti-MDR agents against resistant human hepatocellular carcinoma Bel-7402/5-FU cells” (Eur J Med Chem, 2017)
